Article PMC5943930, “Identification of Inhibitors Targeting Ferredoxin-NADP^+ Reductase from the Xanthomonas citri subsp. citri Phytopathogenic Bacteria” (Molecules : A Journal of Synthetic Chemistry and Natural …, 2017)
Like-named read-outs stand apart in the source and are kept apart here.

Biological target: T1, XccFPR (Xanthomonas citri pv. citri, UniProt A0AAI7ZED9)
T1 sequence (A0AAI7ZED9 1-259): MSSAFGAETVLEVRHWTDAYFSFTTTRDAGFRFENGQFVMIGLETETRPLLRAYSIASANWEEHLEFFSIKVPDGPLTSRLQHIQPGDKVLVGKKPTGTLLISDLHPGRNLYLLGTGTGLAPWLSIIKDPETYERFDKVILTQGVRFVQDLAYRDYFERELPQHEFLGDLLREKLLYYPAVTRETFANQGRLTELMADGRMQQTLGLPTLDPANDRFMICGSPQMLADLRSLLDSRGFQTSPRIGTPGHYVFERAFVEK
Assay: NADPH-dependent DCPIP diaphorase activity of XccFPR, dose-response of inhibitors
Assay type: biochemical, Xanthomonas citri subsp. citri
Method: When assayed in regular cuvettes, the DCPIP diaphorase activity of XccFPR was determined at 25 °C using a Cary 100 (Agilent Technologies Inc., Santa Clara, CA, USA) spectrophotometer as previously established. […] Positive controls (without any hit compound) were included in every reaction set. […] The DMSO concentration was kept at 2% in all samples. All kinetic experiments were performed in triplicate. The effect of the inhibitors on Km and kcat was determined by fitting the datasets to the Michaelis-Menten model. Additionally, data were globally fit to either Lineweaver-Burk equations for uncompetitive or non-competitive inhibition, yielding Ki for each compound (Equations (1) and (2), respectively).

[1] = 25 °C, 50 mM Tris/HCl, 2% DMSO, pH 8.0, 20 nM XccFPR, 95 µM DCPIP, 50 μM NADPH
[2] = 25 °C, 50 mM Tris/HCl, 2% DMSO, pH 8.0, 20 nM XccFPR, 95 µM DCPIP, 50 μM NADPH, compound 0–800 μM
[3] = 25 °C, 2% DMSO, pH 8.0, 20 nM XccFPR, 95 µM DCPIP, 50 μM NADPH

Row | Compound | ICmax (concentration causing maximal inhibition) [1] | IC50 [2] | % Inhibition at ICmax [3] | IC50 | % Inhibition at ICmax (25 °C, 2% DMSO, pH 8.0, 20 nM XccFPR, 95 µM DCPIP, 50 μM NADPH, listed as 2)
1 | benzalkonium chloride [C3, reference compound] | 300 ± 3 µM | 190 ± 1 µM | 31 ± 8% |  | 
2 | CCCCc1ccc(NC(=O)CSc2nc(C3CCCCC3)c(C#N)c(=O)[nH]2)c(C)c1 [C28, N-(4-butyl-2-methylphenyl)-2-[(5-cyano-4-cyclohexyl-6-oxo-1,6-dihydropyrimidin-2-yl)sulfanyl]acetamide] |  |  | 81 ± 2% | > 652 µM | 
3 | N#CC(C#N)=C1SC=C(c2ccc(Cl)cc2)S1 [C23, 2-[4-(4-chlorophenyl)-2H-1,3-dithiol-2-ylidene]propanedinitrile] |  |  | 73 ± 3% | > 604 µM | 
4 | CCOC(=O)CNC(=O)CCc1cc(OC)c(OC)c(OC)c1 [C33, ethyl 2-[3-(3,4,5-trimethoxyphenyl)propanamido]acetate] |  |  | ~53% | > 1920 µM | 
5 | O=C(Nc1cccc(Cl)c1)Nc1ccc(F)c(Cl)c1 [D3, 1-(3-Chloro-4-fluoro-phenyl)-3-(3-chloro-phenyl)-urea] |  |  |  | > 5000 µM | 
6 | O=C(CSc1nc2cc(Cl)ccc2o1)Nc1cc(C(F)(F)F)cc(C(F)(F)F)c1 [C5, N-[3,5-bis(trifluoromethyl)phenyl]-2-[(5-chloro-1,3-benzoxazol-2-yl)sulfanyl]acetamide] |  |  |  | 46 ± 1 µM | 
7 | Cc1oc(C(=O)NNC(=O)Nc2cccc(C(F)(F)F)c2)nc1-c1ccccc1 [C9, 5-methyl-4-phenyl-N-({[3-(trifluoromethyl)phenyl]carbamoyl}amino)-1,3-oxazole-2-carboxamide] |  |  | 60 ± 4% | 147 ± 1 µM | 
8 | O=[N+]([O-])c1ccc(Oc2c(Cl)cccc2Cl)cc1 [C4, 1,3-dichloro-2-(4-nitrophenoxy)benzene] |  |  | 86 ± 1% | 36 ± 1 µM | 
9 | Cc1ccc2oc(=O)n(CCC(=O)NNC(=O)c3nc(-c4cccs4)no3)c2c1 [C32, 3-(5-methyl-2-oxo-2,3-dihydro-1,3-benzoxazol-3-yl)-N'-[3-(thiophen-2-yl)-1,2,4-oxadiazole-5-carbonyl]propanehydrazide] |  |  | ~56% | > 2720 µM | 
10 | CC(C)N(C(=O)c1ccc(-c2ccccc2F)cc1)C(C)C [C6, 4-(2-fluorophenyl)-N,N-bis(propan-2-yl)benzamide] |  |  | ~70% | > 605 µM | 
11 | O=C(Nc1ccccc1-c1nc(-c2ccc(Cl)cc2)no1)C(F)(F)F [C29, N-{2-[3-(4-chlorophenyl)-1,2,4-oxadiazol-5-yl]phenyl}-2,2,2-trifluoroacetamide] |  |  | 27 ± 2% | 11 ± 2 µM | 
12 | O=c1c2ccccc2[se]n1-c1ccccc1 [C2, 2-Phenyl-1,2-benzoselenazol-3-one(ebselen), reference compound] | 300 ± 1 µM | 27 ± 1 µM | over 90% |  | 95 ± 3%
13 | O=C(O/N=C/Nc1ncc(-c2ccc(Br)s2)s1)c1ccc([N+](=O)[O-])cc1 [C25, (E)-({[5-(5-bromothiophen-2-yl)-1,3-thiazol-2-yl]amino}methylidene)amino 4-nitrobenzoate] |  |  | ~91% | 91 ± 1 µM | 
14 | Cc1cc(C)c2cc(C(=O)Nc3ccc4c(c3)OCO4)[nH]c2c1 [C20, N-(2H-1,3-benzodioxol-5-yl)-4,6-dimethyl-1H-indole-2-carboxamide] |  |  | 100 ± 1% | 53 ± 2 µM | 
15 | CCOC(=O)C1=C(C)NC(C)=C(C(=O)OCC)C1c1ccc(-c2cc(C(F)(F)F)ccc2Cl)o1 [C21, 3,5-diethyl 4-{5-[2-chloro-5-(trifluoromethyl)phenyl]furan-2-yl}-2,6-dimethyl-1,4-dihydropyridine-3,5-dicarboxylate] |  |  | 62 ± 7% | 14 ± 1 µM | 
16 | Cc1nc(-c2cc(C#N)c(SCCNS(=O)(=O)c3cccc(C(F)(F)F)c3)nc2C)cs1 [C19, N-(2-{[3-cyano-6-methyl-5-(2-methyl-1,3-thiazol-4-yl)pyridin-2-yl]sulfanyl}ethyl)-3-(trifluoromethyl)benzene-1-sulfonamide] |  |  |  | 17 ± 1 µM | 
17 | Cn1cc(Br)c(/C=N/Nc2ccc(Cl)cc2Cl)n1 [C17, 4-bromo-3-[(1E)-[2-(2,4-dichlorophenyl)hydrazin-1-ylidene]methyl]-1-methyl-1H-pyrazole] |  |  |  | 27 ± 2 µM | 
18 | CC(C)S(=O)(=O)c1c(SCC#N)sc(C#N)c1N [C27, 3-amino-5-[(cyanomethyl)sulfanyl]-4-(propane-2-sulfonyl)thiophene-2-carbonitrile] |  |  | 92 ± 3% | 89 ± 1 µM | 
19 | Brc1csc(C2SCCS2)c1 [C31, 2-(4-bromothiophen-2-yl)-1,3-dithiolane] |  |  | 85 ± 1% | 90 ± 1 µM | 

Row | Compound | ICmax (concentration causing maximal inhibition) [1] | IC50 [2] | % Inhibition at ICmax [3] | IC50 | % Inhibition at ICmax (25 °C, 2% DMSO, pH 8.0, 20 nM XccFPR, 95 µM DCPIP, 50 μM NADPH, listed as 2)
20 | C#CC1(NC(=O)NCCCCCCNC(=O)NC2(C#C)CCCCC2)CCCCC1 [C7, 3-(1-ethynylcyclohexyl)-1-(6-{[(1-ethynylcyclohexyl)carbamoyl]amino}hexyl) urea] |  |  | 97 ± 7% | 85 ± 16 µM | 
21 | CSc1sc(C(=O)O)c(-c2cccc(Cl)c2)c1C#N [D6, 3-(3-chlorophenyl)-4-cyano-5-(methylsulfanyl)thiophene-2-carboxylic acid] |  |  |  | > 1500 µM | 
22 | O=C(COC(=O)c1cccc(I)c1)c1ccccc1 [C35, 2-oxo-2-phenylethyl 3-iodobenzoate] |  |  | 100 ± 1% | 63 ± 1 µM | 
23 | COc1ccc(C(C)=O)cc1CO/N=C1\CSCc2ccccc21 [C16, 1-{3-[({[(4Z)-3,4-dihydro-1H-2-benzothiopyran-4-ylidene]amino}oxy)methyl]-4-methoxyphenyl}ethan-1-one] |  |  | 79 ± 6% | 58 ± 1 µM | 
24 | Clc1ccc2sc(SCc3ccccc3)nc2c1 [C8, 2-(benzylsulfanyl)-5-chloro-1,3-benzothiazole] |  |  | 88 ± 9% | 79 ± 1 µM | 
25 | O=C(O)c1c2c(nc3ccccc13)CSc1ccc(Cl)cc1-2 [C30, 2-chloro-6H-5-thia-7-azatetraphene-12-carboxylic acid] |  |  |  | 29 ± 1 µM | 
26 | N#CC1=C(N)OC2=C(COc3ccc(F)cc32)C1c1ccc(Cl)cc1 (stereo not shown) [C34, 2-amino-4-(4-chlorophenyl)-9-fluoro-4H,5H-pyrano[3,2-c]chromene-3-carbonitrile] |  |  | ~87% | 210 ± 1 µM | 
27 | O=C(CCn1c(=O)oc2ccccc21)Sc1ccc(Cl)cc1Cl [C15, 3-{3-[(2,4-dichlorophenyl)sulfanyl]-3-oxopropyl}-2,3-dihydro-1,3-benzoxazol-2-one] |  |  |  | 30 ± 1 µM | 
28 | CCOC(=O)c1c(C)c(C#N)c(NC(=O)c2ccccc2)n1-c1ccccc1 [C14, ethyl 5-benzamido-4-cyano-3-methyl-1-phenyl-1H-pyrrole-2-carboxylate] |  |  | 85 ± 4% | 127 ± 1 µM | 
29 | O=C1/C(=C/c2cccs2)CCC/C1=C\c1cccs1 [C22, (2E,6E)-2,6-bis[(thiophen-2-yl)methylidene]cyclohexan-1-one] |  |  | 100 ± 4% | 58 ± 2 µM | 
30 | Cc1ccc(C)c(CSc2nc(C3CCCCC3)c(C#N)c(=O)[nH]2)c1 [C24, 4-cyclohexyl-2-{[(2,5-dimethylphenyl)methyl]sulfanyl}-6-oxo-1,6-dihydropyrimidine-5-carbonitrile] |  |  | 43 ± 4% | 35 ± 1 µM | 
31 | CSc1sc(NC(=O)N2CCOCC2)c(-c2ccc(Cl)cc2)c1C#N [D4, N-[3-(4-chlorophenyl)-4-cyano-5-(methylsulfanyl)thiophen-2-yl]morpholine-4-carboxamide] |  |  | 78 ± 2% | 113 ± 1 µM | 
32 | O=C(Nc1cccc(Cl)c1)Nc1ccccc1NS(=O)(=O)c1cccs1 [D1, 3-(3-chlorophenyl)-1-[2-(thiophene-2-sulfonamido)phenyl]urea] |  |  | 98 ± 1% | 76 ± 1 µM | 
33 | Nc1c(Cl)cc(C(=O)Nc2cc(Cl)c(Cl)cc2Cl)cc1Cl [C10, 4-amino-3,5-dichloro-N-(2,4,5-trichlorophenyl)benzamide] |  |  | 57 ± 7% | 98 ± 1 µM | 
34 | COC(=O)c1sccc1NC(=O)Cc1cccs1 [C26, methyl 3-[2-(thiophen-2-yl)acetamido]thiophene-2-carboxylate] |  |  |  | 33 ± 2 µM | 
35 | COc1cc(C2SCCS2)cc([N+](=O)[O-])c1OS(=O)(=O)c1cc(Cl)ccc1Cl [C11, 4-(1,3-dithiolan-2-yl)-2-methoxy-6-nitrophenyl 2,5-dichlorobenzene-1-sulfonate] |  |  | 92 ± 5% | 78 ± 1 µM | 
36 | Nc1ccccc1Sc1cc(C(F)(F)F)cc([N+](=O)[O-])c1Sc1ccccc1N [C18, 2-({2-[(2-aminophenyl)sulfanyl]-6-nitro-4-(trifluoromethyl)phenyl}sulfanyl)aniline] |  |  |  | 24 ± 1 µM | 
37 | Cc1cccc(C)c1NC(=O)Nc1cccs1 [D7, 1-(2,6-dimethylphenyl)-3-thiophen-2-ylurea] |  |  | 84 ± 1% | 151 ± 1 µM | 
38 | N#CC(NCc1ccccc1)c1ccc(Cl)c(Cl)c1 (stereo not shown) [C13, 2-(benzylamino)-2-(3,4-dichlorophenyl)acetonitrile] |  |  | 80 ± 3% | 95 ± 1 µM | 
